Results on three molecules are retold here after publication PMC3966854, “Probenecid Blocks Human P2X7 Receptor-Induced Dye Uptake via a Pannexin-1 Independent Mechanism” (PLoS ONE, 2014).

Structures are written as SMILES.

What all share (assay type): cell-based
The target in test [1] is T1, human P2X7 receptor (Homo sapiens, UniProt Q99572).
T1 sequence (Q99572 1-595): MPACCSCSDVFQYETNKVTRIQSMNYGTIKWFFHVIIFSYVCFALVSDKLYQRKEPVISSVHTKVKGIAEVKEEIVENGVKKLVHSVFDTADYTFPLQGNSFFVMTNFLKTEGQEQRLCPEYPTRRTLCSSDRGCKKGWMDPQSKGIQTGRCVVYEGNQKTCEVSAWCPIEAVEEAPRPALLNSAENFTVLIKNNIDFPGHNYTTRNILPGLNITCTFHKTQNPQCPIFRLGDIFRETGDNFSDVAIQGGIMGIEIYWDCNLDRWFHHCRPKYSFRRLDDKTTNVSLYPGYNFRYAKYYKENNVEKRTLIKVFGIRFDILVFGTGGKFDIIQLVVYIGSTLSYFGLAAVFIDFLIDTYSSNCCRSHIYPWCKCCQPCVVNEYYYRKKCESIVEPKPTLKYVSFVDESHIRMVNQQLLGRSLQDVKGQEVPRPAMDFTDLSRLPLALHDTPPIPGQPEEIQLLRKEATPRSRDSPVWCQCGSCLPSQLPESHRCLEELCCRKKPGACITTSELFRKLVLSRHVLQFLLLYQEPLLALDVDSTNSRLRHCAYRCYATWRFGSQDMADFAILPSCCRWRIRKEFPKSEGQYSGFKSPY
Put plainly: Fluo-4 calcium influx and ethidium dye uptake; complete block at […]. Set-up: gene P2RX7; human P2X7 stably expressed in HEK-293 cells.

Test [2] deals with T1, human P2X7 receptor. Put plainly: ATP-induced ethidium dye uptake; complete block at […]. Set-up: gene P2RX7; human P2X7 stably expressed in HEK-293 cells.
In test [3] the target is T1, human P2X7 receptor. The experiment in a line: whole-cell patch clamp, Fluo-4 calcium influx and ethidium dye uptake (IC50 from dye uptake, […] ATP). Set-up: gene P2RX7; wild-type human P2X7 stably expressed in HEK-293 cells.
In test [4] the target is T2, rat P2X7 (Rattus norvegicus, UniProt Q64663).
T2 construct: gene P2rx7; rat P2X7 stably expressed in HEK-293 cells
T2 sequence (Q64663 1-595): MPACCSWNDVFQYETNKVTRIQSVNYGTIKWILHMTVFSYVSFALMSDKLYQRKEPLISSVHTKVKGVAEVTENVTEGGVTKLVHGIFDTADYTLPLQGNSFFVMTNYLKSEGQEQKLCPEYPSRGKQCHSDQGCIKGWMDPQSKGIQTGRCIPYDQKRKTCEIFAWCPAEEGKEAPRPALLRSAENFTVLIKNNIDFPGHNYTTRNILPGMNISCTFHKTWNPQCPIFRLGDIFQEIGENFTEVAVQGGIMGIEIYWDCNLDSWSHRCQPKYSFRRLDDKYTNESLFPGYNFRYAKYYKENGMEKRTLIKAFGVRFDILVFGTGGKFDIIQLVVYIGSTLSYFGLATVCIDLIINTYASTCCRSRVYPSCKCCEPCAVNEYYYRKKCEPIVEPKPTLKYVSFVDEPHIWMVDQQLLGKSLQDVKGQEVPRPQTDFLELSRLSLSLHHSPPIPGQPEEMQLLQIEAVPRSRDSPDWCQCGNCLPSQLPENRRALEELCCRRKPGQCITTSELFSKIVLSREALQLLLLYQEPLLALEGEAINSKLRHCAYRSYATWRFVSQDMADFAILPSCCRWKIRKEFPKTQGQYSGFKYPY
Put plainly: ATP-induced ethidium dye uptake, […] inhibition at […]. The settings on record: read-out: % inhibition at 2.5 mM.

With `Clc1cccc(-c2nnnn2Cc2cccnc2)c1Cl` [A-438079], in test [1], the “Fluo-4 calcium influx and ethidium dye uptake; complete block at 10 μM” value was determined as 10 µM.
As for `O=C1CSC(=O)N1C(CCc1ccncc1)COc1ccc(-c2cccc([N+](=O)[O-])c2)cc1` (stereo not shown) [AZ11645373], in test [2], the “ATP-induced ethidium dye uptake; complete block at 10 μM” value turned out to be 10 µM.
In the case of `CCCN(CCC)S(=O)(=O)c1ccc(C(=O)O)cc1` [PRO, Probenecid], the IC50 in test [3] worked out at 203 µM. In addition, the inhibition at 2500 µM in test [4] was found to be 34%.
